Data taken from patent US10092584B2 (Achillion Pharmaceuticals, Inc., priority 2015, dated 2018).
Where two headings read alike, the source gives them in different places.

Target: T1, Human Factor D (Homo sapiens, UniProt P00746)
T1 construct: purified from human serum; purchased Complement Technology, Inc; host or cells: human serum
Assay: Human Factor D assay (Example 8)
Assay type: biochemical
Procedure, shortened: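 Serum-purified human Factor D (80 nM final) was preincubated with test compound at various concentrations for 5 min at room temperature in 50 mM Tris, 1M NaCl, pH 7.5. Z-L-Lys-SBzl and DTNB were then added at 100 μM each. IC50 came from nonlinear regression of reaction rates versus compound concentration.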

[1] = Table 1, Human Factor D 80 nM, substrate Z-L-Lys-SBzl, read-out: IC50
[2] = Table 3, Human Factor D 80 nM, substrate Z-L-Lys-SBzl, read-out: IC50 (Stars)
[3] = Table 2, Human Factor D 80 nM, substrate Z-L-Lys-SBzl, read-out: IC50

T1 sequence (P00746 26-253): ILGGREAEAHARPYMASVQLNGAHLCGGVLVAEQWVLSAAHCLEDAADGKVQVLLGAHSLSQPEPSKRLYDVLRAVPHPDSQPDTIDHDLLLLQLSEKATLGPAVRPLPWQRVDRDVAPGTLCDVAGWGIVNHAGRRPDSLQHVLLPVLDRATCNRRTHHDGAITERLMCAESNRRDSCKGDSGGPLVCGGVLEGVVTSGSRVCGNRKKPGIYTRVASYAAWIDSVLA

Compound	IC50 [1] [nM]	IC50 [2] [nM]	other results
CC(=O)c1cn(CC(=O)N2CC[C@@H](OCC3CC3)[C@H]2C(=O)NCc2cccc(Cl)c2F)c2ccccc12 [Compound 18, (2S,3R)-1-(2-(3-acetyl-1H-indol-1-yl)acetyl)-N-(3-chloro-2-fluorobenzyl)-3-(cyclopropylmethoxy) pyrrolidine-2-carboxamide]	< 1000		
NC(=O)N1C[C@H](F)C[C@H]1Cn1cc(-c2ccc(F)c(Cl)c2)nn1 [Compound 30, (2S,4R)-2-((4-(3-chloro-4-fluorophenyl)-1H-1,2,3-triazol-1-yl)methyl)-4-fluoropyrrolidine-1-carboxamide]	> 10000		
CC(=O)c1cn(CC(=O)N2C[C@H](F)C[C@H]2C(=O)Nc2cccc(Br)n2)c2ccc(C3(NC(=O)OC(C)(C)C)CC3)cc12 [Compound 123, tert-butyl 1-(3-acetyl-1-(2-((2S,4R)-2-(6-bromopyridin-2-ylcarbamoyl)-4-fluoropyrrolidin-1-yl)-2-oxoethyl)-1H-indol-5-yl)cyclopropyl-carbamate]			IC50: < 1000 nM
CC(=O)c1nn(CC(=O)N2C[C@H](F)C[C@H]2C(=O)Nc2cccc(-c3ccccc3Cl)c2F)c2cc(C(=O)O)sc12 [Compound 363]		< 1000	
O=C(NCc1cccc(Cl)c1F)[C@@H]1C[C@@H](F)CN1C(=O)Cn1nc(I)c2ccncc21 [Compound 52, (2S,4R)-N-(3-chloro-2-fluorobenzyl)-4-fluoro-1-(2-(3-iodo-1H-pyrazolo[3,4-c]pyridin-1-yl)acetyl)pyrrolidine-2-carboxamide]	< 1000		
NC(=O)c1nn(CC(=O)N2C[C@H](F)C[C@H]2C(=O)Nc2cccc(-c3ccccc3Cl)c2F)c2c1CCCC2 [Compound 104, 1-(2-((2S,4R)-2-((2′-chloro-2-fluoro-[1,1′-biphenyl]-3-yl)carbamoyl)-4-fluoropyrrolidin-1-yl)-2-oxoethyl)-4,5,6,7-tetrahydro-1H-indazole-3-carboxamide]	< 1000		
O=C(NCc1cccc(Cl)c1F)[C@@H]1C[C@@H](F)CN1C(=O)Nc1cn(C(=O)C2CC2)c2ccccc12 [Compound 54, (2S,4R)-N2-(3-chloro-2-fluorobenzyl)-N1-(1-(cyclopropanecarbonyl)-1H-indol-3-yl)-4-fluoropyrrolidine-1,2-dicarboxamide]	< 1000		
NC(=O)c1nn(CC(=O)N2CC(F)(F)C[C@H]2C(=O)Nc2cccc(-c3ccccc3Cl)c2F)c2ccccc12 [Compound 353, (S)-1-(2-(2-((2′-chloro-2-fluoro-[1,1′-biphenyl]-3-yl)carbamoyl)-4,4-difluoropyrrolidin-1-yl)-2-oxoethyl)-1H-indazole-3-carboxamide]		< 1000	
NC(=O)c1nn(CC(=O)N2C[C@H](F)C[C@H]2C(=O)Nc2nc3cccc(Cl)c3[nH]2)c2ccccc12 [Compound 136, 1-(2-((2S,4R)-2-(7-chloro-1H-benzo[d]imidazol-2-ylcarbamoyl)-4-fluoropyrrolidin-1-yl)-2-oxoethyl)-1H-indazole-3-carboxamide]			IC50 [3]: < 1000 nM
NC(=O)c1nn(CC(=O)N2C[C@H](F)C[C@H]2C(=O)Nc2nc3cccc(Cl)c3[nH]2)c2ccccc12 [Compound 360, 1-(2-((2S,4R)-2-((7-chloro-1H-benzo[d]imidazol-2-yl)carbamoyl)-4-fluoropyrrolidin-1-yl)-2-oxoethyl)-1H-indazole-3-carboxamide]		< 1000	
CC(=O)c1cn(CC(=O)N2C[C@H](F)C[C@H]2C(=O)N2Cc3ccccc3C2)c2ccccc12 [Compound 33, 2-(3-acetyl-1H-indol-1-yl)-1-((2S,4R)-4-fluoro-2-(isoindoline-2-carbonyl)pyrrolidin-1-yl)ethanone]	> 10000		
CC(=O)c1cn(CC(=O)N2[C@H](C(=O)NCc3cccc(Cl)c3F)C[C@@H]3CCCC[C@@H]32)c2ccccc12 [Compound 1, (2S,3aS,7aS)-1-(2-(3-acetyl-1H-indol-1-yl)acetyl)-N-(3-chloro-2-fluorobenzyl)octa-hydro-1H-indole-2-carboxamide]			IC50: < 1000 nM
CC(C)(C)OC(=O)N1CCc2c(n(CC(=O)N3C[C@H](F)C[C@H]3C(=O)NCc3cccc(Cl)c3F)c3ccccc23)C1 [Compound 67, tert-butyl 9-(2-((2S,4R)-2-(3-chloro-2-fluorobenzylcarbamoyl)-4-fluoropyrrolidin-1-yl)-2-oxoethyl)-3,4-dihydro-1H-pyrido[3,4-b]indole-2(9H)-carboxylate]	> 10000		
NC(=O)c1cn(CC(=O)N2C[C@H](F)C[C@H]2C(=O)Nc2cccc(-c3ccccc3Cl)c2F)c2ccsc12 [Compound 103, 4-(2-((2S,4R)-2-(2′-chloro-2-fluorobiphenyl-3-ylcarbamoyl)-4-fluoropyrrolidin-1-yl)-2-oxoethyl)-4H-thieno[3,2-b]pyrrole-6-carboxamide]	< 1000		
CC(=O)c1nn(CC(=O)N2C[C@H](F)C[C@H]2C(=O)Nc2cccc(-c3cccc4nc[nH]c34)c2F)c2ccccc12 [Compound 457, (2S,4R)-N-(3-(1H-benzo[d]imidazol-7-yl)-2-fluorophenyl)-1-(2-(3-acetyl-1H-indazol-1-yl)acetyl)-4-fluoropyrrolidine-2-carboxamide]		< 1000	
COC(=O)c1cc2c(s1)c(C(N)=O)nn2CC(=O)N1C[C@H](F)C[C@H]1C(=O)Nc1cccc(-c2ccccc2Cl)c1F [Compound 129, methyl 3-carbamoyl-1-(2-((2S,4R)-2-(2′-chloro-2-fluorobiphenyl-3-ylcarbamoyl)-4-fluoropyrrolidin-1-yl)-2-oxoethyl)-1H-thieno[3,2-c]pyrazole-5-carboxylate]			IC50 [3]: < 1000 nM
NC(=O)c1nn(CC(=O)N2CCC[C@H]2C(=O)Nc2cccc(-c3ccccc3Cl)c2F)c2ccccc12 [Compound 337, (S)-1-(2-(2-((2′-chloro-2-fluoro-[1,1′-biphenyl]-3-yl)carbamoyl)pyrrolidin-1-yl)-2-oxoethyl)-1H-indazole-3-carboxamide]		< 1000	
CC(=O)c1nn(CC(=O)N2C[C@H](F)C[C@H]2C(=O)Nc2cccc(-c3ccccc3Cl)c2F)c2cc(C)sc12 [Compound 323, (2S,4R)-1-(2-(3-Acetyl-5-methyl-1H-thieno[3,2-c]pyrazol-1-yl)acetyl)-N-(2′-chloro-2-fluoro-[1,1′-biphenyl]-3-yl)-4-fluoropyrrolidine-2-carboxamide]		< 1000	
NC(=O)c1nn(CC(=O)N2C[C@H](F)C[C@H]2C(=O)Nc2cccc(-c3cc(F)c(F)cc3Cl)c2F)c2ccccc12 [Compound 80, 1-(2-((2S,4R)-2-((2′-Chloro-2,4′,5′-trifluoro-[1,1′-biphenyl]-3-yl)carbamoyl)-4-fluoropyrrolidin-1-yl)-2-oxoethyl)-1H-indazole-3-carboxamide]			IC50: < 1000 nM
NC(=O)c1ccc(Cl)c(-c2cccc(NC(=O)[C@@H]3C[C@@H](F)CN3C(=O)Cn3nc(C(N)=O)c4ccccc43)c2F)c1 [Compound 315, 1-(2-((2S,4R)-2-((5′-carbamoyl-2′-chloro-2-fluoro-[1,1′-biphenyl]-3-yl)carbamoyl)-4-fluoropyrrolidin-1-yl)-2-oxoethyl)-1H-indazole-3-carboxamide]		< 1000	
O=C(NCc1cccc(Cl)c1F)[C@@H]1C[C@@H](F)CN1C(=O)CN1C=NS(=O)(=O)c2ccccc21 [Compound 65, (2S,4R)-N-(3-chloro-2-fluorobenzyl)-1-(2-(1,1-dioxido-4H-benzo[e][1,2,4]thiadiazin-4-yl)acetyl)-4-fluoropyrrolidine-2-carboxamide]	> 10000		
NC(=O)c1nn(CC(=O)N2C[C@H](F)C[C@H]2C(=O)Nc2cccc(-c3ccc4c(c3)NCCO4)c2F)c2ccccc12 [Compound 442, 1-(2-((2S,4R)-2-((3-(3,4-Dihydro-2H-benzo[b][1,4]oxazin-6-yl)-2-fluorophenyl)carbamoyl)-4-fluoropyrrolidin-1-yl)-2-oxoethyl)-1H-indazole-3-carboxamide]		< 1000	
NC(=O)c1nn(CC(=O)N2[C@@H]3C[C@@H]3C[C@H]2C(=O)NCc2cccc(Cl)c2F)c2ccsc12 [Compound 107, 1-(2-((1R,3S,5R)-3-(3-chloro-2-fluorobenzylcarbamoyl)-2-azabicyclo[3.1.0]hexan-2-yl)-2-oxoethyl)-1H-thieno[3,2-c]pyrazole-3-carboxamide]	< 1000		
NC(=O)c1nn(CC(=O)N2C[C@H](F)C[C@H]2C(=O)Nc2cccc(-c3ccccc3Cl)c2F)c2cc(C(=O)O)sc12 [Compound 326, 3-carbamoyl-1-(2-((2S,4R)-2-((2′-chloro-2-fluoro-[1,1′-biphenyl]-3-yl)carbamoyl)-4-fluoropyrrolidin-1-yl)-2-oxoethyl)-1H-thieno[3,2-c]pyrazole-5-carboxylic acid]		< 1000	
